Measured values taken from patent EP0880540B1, “17-BETA-CYCLOPROPYL(AMINO/OXY) 4-AZA STEROIDS AS ACTIVE INHIBITORS OF TESTOSTERONE 5-ALPHA-REDUCTASE AND C17-20-LYASE” (Aventis Pharmaceuticals Inc., priority 1996, dated 1997).

Molecular target: T1, nude mouse testicular C17,20 lyase (Mus musculus, UniProt P27786)
T1 construct: from tissue; host or cells: testes of male athymic nude mice (Harlan Laboratories), 10,000 x g supernatant of homogenate
T1 sequence (P27786 1-507): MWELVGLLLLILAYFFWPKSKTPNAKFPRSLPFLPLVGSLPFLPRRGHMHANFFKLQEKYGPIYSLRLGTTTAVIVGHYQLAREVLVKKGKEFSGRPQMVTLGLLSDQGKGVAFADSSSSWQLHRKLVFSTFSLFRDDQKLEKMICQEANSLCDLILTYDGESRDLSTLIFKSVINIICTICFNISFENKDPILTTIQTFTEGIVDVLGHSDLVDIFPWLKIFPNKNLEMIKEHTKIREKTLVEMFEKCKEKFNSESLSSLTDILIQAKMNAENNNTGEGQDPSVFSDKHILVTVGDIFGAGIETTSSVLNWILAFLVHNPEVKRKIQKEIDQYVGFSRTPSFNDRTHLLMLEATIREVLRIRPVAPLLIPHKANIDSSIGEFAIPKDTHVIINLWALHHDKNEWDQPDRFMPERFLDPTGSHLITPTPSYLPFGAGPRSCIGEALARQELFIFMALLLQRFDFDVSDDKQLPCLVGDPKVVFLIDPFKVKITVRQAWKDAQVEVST
Assay: Ex vivo inhibition of C17,20 lyase in nude mouse testes after oral dosing
Set-up: species or system male athymic nude mice
Conditions: 4 hours after oral dosing
Method: Ex vivo inhibition of C17,20 lyase: MDL 103,432 was tested for ex vivo inhibition of rat and nude mouse testes lyase. Male Copenhagen rats and male athymic nude mice obtained from Harlan Laboratories, Indianapolis, IN, were divided into groups of 5 to 6 based on weight. Average weight was 100-140 g each for rats and 18-35 g each for the mice. Prior to oral dosing, animals were fasted overnight. Test compound was prepared by micronization in a lecithin vehicle using a glass Teflon® pestle-type homogenizer. The compound was brought to volume using lecithin so as to administer 0.5 mL per 100 g animal. Rats and nude mice were given vehicle only (controls) or vehicle plus test compounds peros. Rats were also given the compound in lecithin or lecithin alone subcutaneously. Each group consisted of 5-6 animals. At a specified time after dosing, the animals were anesthetized with CO2 gas, sacrificed by cervical dislocation, testes were excised, capsules were removed, and the tissue was weighed. […] Assays were terminated, extracted and analyzed as described above except that carrier steroids were 17α-hydroxyprogesterone, androst-4-ene-dione, and testosterone. […] Activity of test compound was expressed as percent inhibition relative to the control and was the mean of each group of treated animals.

CC12CCC3C(CC[C@H]4NC(=O)CCC34C)C1CC[C@@H]2OC1CC1 (stereo partly drawn) [MDL 103,432, 17β-Cyclopropyloxy-4-aza-5α-androstan-3-one]
inhibition at 30 mg/kg (30 mg/kg): 88%
inhibition at 100 mg/kg (100 mg/kg): 96%
